Measured values taken from ChEMBL document CHEMBL1147542 (Bioorg Med Chem Lett, 2004).

How the values were obtained:
Phosphodiesterase 6 = assay: Inhibition of phosphodiesterase 6 from bovine retina; type: protein assay, Bos taurus
[1] = biological target: Phosphodiesterase 3 (Oryctolagus cuniculus); assay: Inhibition of phosphodiesterase 3 from rabbit platelets
[2] = Relative inhibition of PDE6 and PDE5
[3] = system: Phosphodiesterase 3 and 5 (Oryctolagus cuniculus); assay: Relative inhibition of PDE3 and PDE5
Phosphodiesterase 1 = Phosphodiesterase 1 (Bos taurus, UniProt Q01061+P14100); assay: Inhibition of phosphodiesterase 1 from bovine heart; type: protein assay
[4] = Relative inhibition of PDE1 and PDE5

With `CCCOc1ccc(S(=O)(=O)N2CCC(CP(=O)(O)OCC)CC2)cc1-c1nc2c(CCC)nn(C)c2c(=O)[nH]1` the IC50 (Phosphodiesterase 6) was 0.00258 µM, the IC50 [1] was 2.6 µM and the IC50 ratio [2] was 15. The IC50 ratio [3] was > 15000, the IC50 (Phosphodiesterase 1) was 0.156 µM and the IC50 ratio [4] was 918.
